Measurements as given in patent US7544814B2, “[3.2.0] Heterocyclic compounds and methods of using the same” (Nereus Pharmaceuticals, Inc., priority 2004, dated 2009).
“And” between values parts separate entries of the source, which are not always exact repeats. Equal entries are not always repeated. Where two headings read alike, the source gives them in different places.

Tests used:
RPMI 8226 [1] = assay: cells; settings: 1% or 10% FBS
Experimental: RPMI 8226 (CCL-155), HT-29 (HTB-38), and B16-F10 (CRL-6475) cells were purchased from ATCC. RPMI 8226 cells were maintained in RPMI 1640 media supplemented with 10% (v/v) FBS, 2 mM L-glutamine, 1 mM sodium pyruvate and Penicillin/Streptomycin at 100 IU/ml and 100 μg/ml, respectively. HT-29 cells were maintained in McCoys 5A supplemented with 10% (v/v) FBS, 2 mM L-glutamine, 1 mM sodium pyruvate, 1% (v/v) non-essential amino acids, 10 mM HEPES and Penicillin/Streptomycin at 100 IU/ml and 100 μg/ml, respectively. B16-F10 cells were maintained in DMEM supplemented with 10% (v/v) FBS, 2 mM L-glutamine, 10 mM HEPES and Penicillin/Streptomycin at 100 IU/ml and 100 μg/ml, respectively.
RPMI 8226 cells were seeded at 2×10^4 cells/well in 90 μl RPMI media containing 10% (v/v) FBS or 1% (v/v) FBS into 96 well black-walled, clear-bottom tissue culture plates. […] Formulae II-16, II-17 and Formula II-18 were serially diluted in media containing 1% or 10% FBS and added in triplicate to the test wells. […] The final concentration of Formula II-18 ranged from 2 μM to 630 pM.

[2] = molecular target: T1, trypsin-like activity of purified rabbit muscle 20S proteasome (Oryctolagus cuniculus, UniProt G1SWK8); assay: biochemical
T1 sequence (G1SWK8 1-271): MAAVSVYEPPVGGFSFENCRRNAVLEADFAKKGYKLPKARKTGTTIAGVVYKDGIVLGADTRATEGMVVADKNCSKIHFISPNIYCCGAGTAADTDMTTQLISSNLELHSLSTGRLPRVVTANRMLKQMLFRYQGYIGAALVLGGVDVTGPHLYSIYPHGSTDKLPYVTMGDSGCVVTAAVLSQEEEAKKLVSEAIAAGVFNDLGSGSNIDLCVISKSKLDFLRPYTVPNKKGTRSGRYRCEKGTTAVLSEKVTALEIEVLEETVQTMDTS

[3] = molecular target: T2, chymotrypsin-like activity of 20S proteasomes in RPMI 8226 cells (Homo sapiens, UniProt P28074); assay: Chymotrypsin-like activity of 20S proteasomes in lysates of treated RPMI 8226 cells; assay type: cell-based; settings: RPMI-8226, read-out: % inhibition of the chymotrypsin-like activity of 20S proteasomes in RPMI 8226 cell lysates
T2 construct: added to 2.5×10^5/ml RMPI 8226 cells; endogenous in cells; host or cells: RPMI 8226 (ATCC CCL-155)
T2 sequence (P28074 60-263): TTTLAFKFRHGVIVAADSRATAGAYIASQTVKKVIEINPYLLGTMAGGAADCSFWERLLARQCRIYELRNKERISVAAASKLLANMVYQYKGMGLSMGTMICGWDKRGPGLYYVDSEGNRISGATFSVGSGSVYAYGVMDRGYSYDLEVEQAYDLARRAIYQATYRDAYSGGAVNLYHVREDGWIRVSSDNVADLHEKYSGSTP
Experimental: RPMI 8226 (ATCC, CCL-155), the human multiple myeloma cell line, was cultured in RPMI 1640 medium supplemented with 2 mM L-glutamine, 100 units/ml penicillin, 100 μg/ml streptomycin, 1 mM sodium pyruvate and 10% heat inactivated fetal bovine serum at 37° C., 5% CO2 and 95% humidified air. […] DMSO was used as the vehicle control at a final concentration of 0.1%. Following 1 hr incubation of RMPI 8226 cells with the compounds, the cells were pelleted by centrifugation at 2,000 rpm for 10 sec at room temperature and washed 3× with ice-cold 1× Dulbecco's Phosphate-Buffered Saline (DPBS, Mediatech, Herndon, Va.). DPBS washed cells were lysed on ice for 15 min in lysis buffer (20 mM HEPES, 0.5 mM EDTA, 0.05% Triton X-100, pH 7.3) supplemented with protease inhibitor cocktail (Roche Diagnostics, Indianapolis, Ind.). Cell debris was pelleted by centrifugation at 14,000 rpm for 10 min, 4° C. and supernatants (=cell lysates) were transferred to a new tube. Protein concentration was determined by the BCA protein assay kit (Pierce Biotechnology, Rockford, Ill.). […] The released coumarin (AMC) was measured fluorometrically by using λex=390 nm and λem=460 nm. The assay was performed in a microtiter plate (Corning 3904) and followed kinetically with measurements every five minutes for 2 hr. The total amount of protein used for each assay was 20 μg. The final concentration of Suc-LLVY-AMC and DMSO was 20 μM and 0.2%, respectively.

[4] = molecular target: T3, chymotrypsin-like activity of 20S proteasomes in PC-3 cells (Homo sapiens, UniProt P28074); assay: Chymotrypsin-like activity of 20S proteasomes in lysates of treated PC-3 cells; assay type: cell-based; settings: 100 nM, 1 hr incubation
T3 construct: endogenous in cells; host or cells: PC-3 (ATCC CRL-1435)
Experimental: PC-3 (ATCC, CRL-1435), the human prostate cancer cell line, was cultured in F12K medium supplemented with 2 mM L-glutamine, 100 units/ml penicillin, 100 μg/ml streptomycin and 10% heat inactivated fetal bovine serum at 37° C., 5% CO2 and 95% humidified air. […] DMSO was used as the vehicle control at a final concentration of 0.1%. Following 1 hr incubation of PC-3 cells with the compounds, the cells were washed 3× with ice-cold 1× Dulbecco's Phosphate-Buffered Saline (DPBS, Mediatech, Herndon, Va.). […] Cell debris was pelleted by centrifugation at 14,000 rpm for 10 min, 4° C. and supernatants (=cell lysates) were transferred to a new tube. Protein concentration was determined by the BCA protein assay kit (Pierce Biotechnology, Rockford, Ill.). […] The released coumarin (AMC) was measured fluorometrically by using λex=390 nm and λem=460 nm. The assay was performed in a microtiter plate (Corning 3904) and followed kinetically with measurements every five minutes for 2 hr. The total amount of protein used for each assay was 20 μg. The final concentration of Suc-LLVY-AMC and DMSO was 20 μM and 0.2%, respectively. Results are presented as the percent inhibition of the 20S proteasome chymotrypsin-like activity relative to the DMSO control.

MES-SA/Dx5 = assay: Cell growth inhibition (resazurin), multidrug resistant MES-SA/Dx5; assay type: cell-based, human; settings: for EC50: Table 3, 48 hours drug exposure
U266 [5] = system: U266
[6] = molecular target: T4, chymotrypsin-like activity of purified rabbit muscle 20S proteasome (Oryctolagus cuniculus, UniProt G1T4Q9); assay: In vitro inhibition of 20S proteasome chymotrypsin-like activity (suc-LLVY-AMC)
T4 sequence (G1T4Q9 1-263): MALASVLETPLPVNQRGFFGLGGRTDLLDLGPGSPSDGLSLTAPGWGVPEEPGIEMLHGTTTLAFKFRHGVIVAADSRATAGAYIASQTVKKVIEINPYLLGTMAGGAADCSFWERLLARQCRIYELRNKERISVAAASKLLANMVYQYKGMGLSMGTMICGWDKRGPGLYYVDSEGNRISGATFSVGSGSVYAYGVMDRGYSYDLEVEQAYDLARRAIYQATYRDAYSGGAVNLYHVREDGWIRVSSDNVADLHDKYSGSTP

[7] = molecular target: T5, caspase-like activity of purified rabbit muscle 20S proteasome (Oryctolagus cuniculus, UniProt A0A5F9DQW2); assay: In vitro inhibition of 20S proteasome caspase-like activity (Z-LLE-AMC); settings: EC50 Caspase-like, Table 6, values in μM
T5 sequence (A0A5F9DQW2 1-212): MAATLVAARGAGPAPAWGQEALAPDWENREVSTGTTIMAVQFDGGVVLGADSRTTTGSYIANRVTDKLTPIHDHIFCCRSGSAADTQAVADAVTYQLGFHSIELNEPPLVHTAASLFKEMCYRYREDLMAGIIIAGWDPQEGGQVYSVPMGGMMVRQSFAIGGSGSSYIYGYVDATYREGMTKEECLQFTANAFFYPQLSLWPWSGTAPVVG

U266 [8] = assay: Cell growth inhibition (resazurin), U266; settings: 48 hours drug exposure
RPMI 8226 [9] = assay: Cell growth inhibition (resazurin), RPMI 8226; settings: Homo sapiens, RPMI-8226, 48 h, read-out: RPMI 8226 EC50, Table 2; 48 hours drug exposure; mean ± SD where n≥3
HL-60/MX2 = assay: Cell growth inhibition (resazurin), multidrug resistant HL-60/MX2; settings: ratio of EC50 values (HL-60/MX2:HL-60)
Experimental: Concentrations ranging from 6.32 μM to 2 nM were tested for II-2 and II-4.
HL-60/MX2 is a multidrug resistant tumor cell line derived from the human promyelocytic leukemia cell line, HL-60 and expresses reduced topoisomerase II activity. […] Mitoxantrone, the topoisomerase II targeting agent was included as a control.

CC[C@H]1C(=O)N[C@@]2([C@@H](O)[C@@H]3C=CCCC3)C(=O)O[C@@]12C [Formula II-17]
cytotoxicity against RPMI 8226 in media containing 1% or 10% FBS, in words (RPMI 8226 [1]): cytotoxic
EC50 [2]: 0.573 µM and 0.602 µM
inhibition at 0.001 µM [3]: 6 ± 6%
inhibition at 0.005 µM [3]: 10 ± 5%
inhibition at 0.01 µM [3]: 6 ± 6%
inhibition at 0.05 µM [3]: 26 ± 5%
inhibition at 0.1 µM [3]: 30 ± 4%
inhibition at 0.5 µM [3]: 39 ± 3%
inhibition at 1 µM [3]: 46 ± 4%
inhibition at 10 µM [3]: 65 ± 5%
% inhibition of the chymotrypsin-like activity of 20S proteasomes in PC-3 cell lysates [4]: 26%

CC(=O)O[C@H]1C(=O)[C@@]2(C)[C@H]([C@H](OC(=O)c3ccccc3)[C@]3(O)C[C@H](OC(=O)[C@H](O)[C@@H](NC(=O)c4ccccc4)c4ccccc4)C(C)=C1C3(C)C)[C@]1(OC(C)=O)CO[C@@H]1C[C@@H]2O [Paclitaxel]
EC50 (MES-SA/Dx5; Homo sapiens, MES-SA/Dx5, 48 h): 2.93 µM
EC50 (MES-SA/Dx5): 5.21 µM
Fold change (MES-SA/Dx5; ratio of EC50 values (MES-SA/Dx5:MES-SA)): ~800 fold

C[C@@]12OC(=O)[C@]1([C@@H](O)[C@H]1CCC[C@H](Cl)[C@H]1O)NC(=O)[C@@H]2CCCl [Formula IV-3C]
cytotoxicity against U266, in words (U266 [5]): cytotoxic
EC50 ([6]; EC50 Chymotrypsin-like, Table 6, values in μM): 4.9 µM and 10.6 µM
EC50 ([6]; EC50 values, chymotrypsin-like activity, range or bound stated in text, summary of Table 6): 1.4 to 10.6 µM
EC50 [7]: > 20 µM
EC50 (U266 [8]; Homo sapiens, U-266, 48 h, read-out: U266 EC50, Table 2): 7.76 µM
EC50 (U266 [8]; read-out: U266 EC50, Table 2): 8.29 µM
EC50 [2]: > 20 µM
EC50 (RPMI 8226 [9]): > 20 µM

O=C1c2c(O)ccc(O)c2C(=O)c2c(NCCNCCO)ccc(NCCNCCO)c21 [Mitoxantrone, reference compound]
Fold change (HL-60/MX2): ~30 fold

CC(C)[C@H](O)[C@@]12NC(=O)[C@H](C)[C@@H]1OC2=O [Omuralide, reference compound]
inhibition at 0.001 µM ([3]; 1 nM, 1 hr incubation, mean ± SD, n = 3): 5 ± 9%
inhibition at 0.005 µM ([3]; 5 nM, 1 hr incubation, mean ± SD, n = 3): 8 ± 9%
inhibition at 0.05 µM ([3]; 50 nM, 1 hr incubation, mean ± SD, n = 3): 17 ± 11%
inhibition at 0.1 µM ([3]; 100 nM, 1 hr incubation, mean ± SD, n = 3): 32 ± 8%
inhibition at 0.5 µM ([3]; 500 nM, 1 hr incubation, mean ± SD, n = 3): 68 ± 11%
% inhibition of the chymotrypsin-like activity of 20S proteasomes in PC-3 cell lysates [4]: 36%
inhibition at 0.1 µM ([4]; PC-3, read-out: % inhibition of the chymotrypsin-like activity of 20S proteasomes in PC-3 cell lysates): 36%
